Experimental data from patent publication US4451485A, “Treatment of cardio-vascular diseases with 3-(2,2,2-trimethylhydrazinium) propionate dihydrate” (Institu Organicheskogo Sinteza Akademii Nauk Latviiskoi SSR, priority 1981, dated 1984).

Assays:
[1] = Physicochemical properties of the dihydrate (solubility, stability, hygroscopicity)
[2] = Clinical tests on patients with various kinds of pathology; conditions: human, in vivo
Excerpt: The pharmaceutical preparation according to the present invention can be useful in the treatment of such diseases as heart insufficiency, valvular defects, myocarditises, cardiosclerosis, ischemic heart disease, rhythm disturbances of different genesis. […] The preparation according to the present invention has been tested in experiments on animals and in clinics on patients with various kinds of pathology.
The preparation has been studied on more than 65 patients suffering from various pathology of the cardio-vascular systems such as heart rhythm disturbances (arrhythmia) of different etiology, ischemic heart disease, stenocardia, and atherosclerosis.

[3] = Aconitine model of arrhythmia in white rats; format: in vivo
Procedure: For the comparison of preparations, as the criterion of the range of therapeutic effect, there was used the ratio of the half-lethal dose to the half-effective dose (LD50 /ED50) which was referred to as the antiarrhythmic index. […] The comparative study of the antiarrhythmic activity of pharmaceutical preparations using an acotine model of arrhythmia was effected in experiments on white rats weighing 190-240 g. The test preparations were administered intraperitoneally 10-40 minutes before administration of aconitine.

[4] = Antianginal effect in patients, intravenous; format: in vivo; conditions: 0.2 to 0.4 g intravenous
Procedure: (§1) The antianginal and antiarrhythmic effects of the preparation according to the present invention were evaluated with the use of the injection pharmaceutical form of the preparation administered intravenously in an amount of 0.2 to 0.4 g based on the active ingredient.

[5] = Efficiency in extrasystolic arrhythmia in patients, intravenous; format: in vivo; conditions: 1 ml of a 40% solution intravenous; 7 patients
Procedure: as §1
The preparation efficiency in the case of extrasystolic arrhythmia was studied on 7 patients.
The intravenous administration of the preparation (1 ml of a 40% solution) arrested the rhythm disorder for 5-20 minutes.

[6] = Variation of the arrhythmogenic dose of Strophanthin G in rabbits; format: in vivo
Procedure: The effect of the preparation according to the present invention on the variation of the arrhythmogenic dose of Strophanthin G was studied in experiments on rabbits of both sexes with a mass of […] administered with Strophanthin G at a dose of 60 μg/kg into the marginal auricular vein and, after every 5-10 minutes, at a dose of 5-10 μg/kg until the appearance of a stable ventricular extrasystole. In the test groups 20-30 minutes before administration of the glycoside a solution of 3-(2,2,2-trimethylhydrazinium)propionate was prophylactically administered intravenously. The ECG was recorded in II standard lead.
At a further increase of the dose to the preparation to the present invention, its protective effect was increased too.

salmoneallae = assay: Mutagenous activity on salmonellae; conditions: dihydrate
[7] = Effect on Strophanthin K arrhythmia in narcotized guinea pigs (500 μg/kg); format: in vivo
Procedure: After the administration of the preparation at a dose of 5 mg/kg the regular synusal rhythm was retained for 12±5 minutes on the average, whereafter arrhythmia was gradually renewed, but it could be again eliminated by a repeated administration of the preparation at a dose of 2-5 mg/kg. In such cases the sinusal rhythm was retained for 15 to 30 minutes and in the majority of tests arrhythmia never renewed. Furthermore, an experiment was carried out on narcotized guinea pigs with a mass of 600-710 g to which Strophanthin -K was administered into the femoral vein at a total dose of 500 μg/kg.
The preparation based on 3-(2,2,2-trimethylhydrazonium)propionate was intravenously administered against the background of arrhythmia in the test group.
The graph illustrates the recording of ECG of a guinea pig.
The effect of compound I on Strophanthin arrhythmia in guinea pigs.

SMILES: C[N+](C)(C)NCCC(=O)[O-] [3-(2,2,2-trimethylhydrazinium)propionate]
- Hygroscopicity ([1]; dihydrate): slightly hygroscopic
- Solubility in hot ethanol and methanol ([1]; dihydrate): well soluble
- Solubility in nonpolar solvents ([1]; dihydrate): insoluble
- Solubility in water ([1]; dihydrate): well soluble
- Storage stability ([1]; dihydrate, closed area, room temperature): 2 years
- Thermal stability ([1]; heating above 40° C.): loses crystallization water and slowly decomposes
- Therapeutic effects in paroxysmal tachycardia, fibrillation, A-V block and paroxysms [2]: positive, though less pronounced, effects
- Therapeutic results in chronic decompensation (rheumatic valvular defects) and acute circulatory insufficiency (myocardial infarction) [2]: Especially pronounced therapeutic results
- ED50 ([3]; Rattus norvegicus, ip, read-out: ED50, aconitine arrhythmia in rats): 12.5 ± 2.5 mg/kg
- Antiarrhythmic index LD50/ED50, aconitine arrhythmia in rats ([3]; rat, in vivo): 354
- Stability of analgesic effect [4]: not always stable
- Effect on retrosternal pains ([4]; 8 cases in 5 patients): rapidly cut short retrosternal pains
- Duration of arrest of the rhythm disorder [5]: 5 to 20 min
- Duration of arrhythmia ([6]; 10 mg/kg intravenously, control 20 ± 10): 12 ± 6 min
- Arrhythmogenic dose of Strophanthin ([6]; 10 mg/kg intravenously, control 67 ± 9): 0.09 ± 0.015 mg/kg
- Arrhythmogenic dose of Strophanthin ([6]; 25 mg/kg intravenously): 0.1 ± 0.01 mg/kg
- Duration of arrhythmia ([6]; 25 mg/kg intravenously): 8 ± 5 min
- Arrhythmogenic dose of Strophanthin ([6]; 50 mg/kg intravenously): 0.106 ± 0.012 mg/kg
- Duration of arrhythmia ([6]; 50 mg/kg intravenously): 15 ± 8 min
- Mutagenous activity (salmoneallae): does not have mutagenous activity
- Effect on atrio-ventricular block ([7]; 2-5 mg/kg, timely administration, some cases): possible to also eliminate the atrio-ventricular block
- Changes in the complex QRST and atrial fibrillation ([7]; intravenous): The changes in the complex QRST were reduced and the atrial fibrillation disappeared
- Effect on ventricular arrhythmia ([7]; intravenous): temporarily arrested the ventricular arrhythmia
- Time to arrest of ventricular arrhythmia ([7]; intravenous): 2 to 3 min
